Assay results from patent US10351525B2, “Beta lactamase inhibitors” (Oxford University Innovation Limited, priority 2014, dated 2019).

How the values were obtained:
BcII = molecular target: T1, BcII (Bacillus cereus, UniProt P04190); assay: MBL screening assay (IC50), BcII; format: biochemical
T1 construct: made in house; host or cells: Escherichia coli
Protocol: (§1) Recombinant forms of NDM-1, NDM-1 M67C, VIM-1, VIM-2, SPM-1, IMP-1 and BcII MBLs were produced in Escherichia coli as described in J. Med. Chem. 56, 6945-6953 (2013) and Makena et al Chem MechCHem 8, 1923-9 (2013). Purified VIM-2 protein was dialysed into fresh crystallization buffer (50 mM HEPES pH 7.5, 150 mM NaCl and […], concentrated to 7.5 mg/mL and used for crystallographic analyses.
(§2) Kinetic and inhibition analyses and UV-VIS studies^16 against bacterial MBLs were performed as described by Van Berkel et al in J. Med. Chem. 56, 6945-6953 (2013) and Makena et al Chem MechCHem 8, 1923-9 (2013).
(§3) The experiments were performed by using a NovaStar microplate reader (using path length correction) and were performed at r.t. (24-25° C.). All enzymes and substrates were dissolved in the assay buffer: 50 mM HEPES-NaOH buffer (pH 7.2) supplemented with 1 μg/mL BSA (to minimize the denaturation of the enzyme), 1 μM ZnSO4 and 0.01% Triton 100. Screening was carried out against a panel of MBLs including NDM-1, VIM-1, VIM-2, SPM-1 (Sao Paulo MBL-1) and IMP-1 and the non-clinically relevant model MBL Bacillus cereus (BcII).
(§4) The kinetic values determined were the means from at least three independent measurements. […] The IC50 values were determined from the plot of activity (steady state rate) versus inhibitor concentration using the same software. […]

NDM-1 = molecular target: T2, NDM-1 (Klebsiella pneumoniae, UniProt C7C422); assay: biochemical
T2 construct: made in house; host or cells: Escherichia coli
Protocol: as §1, §2, §3, §4

[1] = tested on: MBL producing Escherichia coli and Klebsiella pneumoniae strains; assay: Potentiation of meropenem; format: cell-based; conditions: for Inhibitor concentration that conferred meropenem sensitivity (lowest tested): IMP producers; for Synergy with meropenem: MBL producing strains
Protocol: (§5) Further studies were carried out to determine if ML302F/ML302 potentiates β-lactam antibiotic activity in clinically derived strains containing IMP-1, IMP-4, VIM-4 or NDM-1, which are the most commonly observed MBLs in clinical isolates. All strains producing MBLs were confirmed as resistant to meropenem at the Clinical and Laboratory Standards Institute (U.S.A.) defined breakpoint of 8 μg/mL for Enterobacteriace (see Table 2 below). The minimum inhibitory concentration (MIC) of meropenem against wildtype and MBL producing Escherichia coli and Klebsiella pneumoniae strains was determined with and without increasing concentrations of ML302 or ML302F. Clinical and Laboratory Standards Institute. 2012. Methods for dilution antimicrobial susceptibility tests for bacteria that grow aerobically; 9th ed. Approved standard M07-A9. CLSI, Wayne, Pa.; and Clinical and Laboratory Standards Institute. 2012. Performance standards for antimicrobial susceptibility testing; 22nd informational supplement M100-S22. CLSI, Wayne, Pa.

E. coli MG1655 (IMP-1) = assay: Meropenem MIC with and without inhibitor; format: cell-based, Escherichia coli; conditions: for Meropenem MIC in the presence of inhibitor: E. coli MG1655 (IMP-1)
Protocol: as §5

E. coli IR60 (NDM-1) = assay: Meropenem MIC with and without inhibitor; format: cell-based, Escherichia coli
Protocol: as §5

VIM-1 = molecular target: T3, VIM-1 (Pseudomonas aeruginosa, UniProt A0A0F7KYQ8); assay: MBL screening assay (IC50), VIM-1; format: biochemical
T3 construct: made in house; host or cells: Escherichia coli
Protocol: as §1, §2, §3, §4

IMP-1 = molecular target: T4, IMP-1 (Serratia marcescens, UniProt P52699); assay: MBL screening assay (IC50), IMP-1; format: biochemical
T4 construct: made in house; host or cells: Escherichia coli
Protocol: as §1, §2, §3, §4

[2] = tested on: K. pneumoniae NCTC 5055 (IMP-1); assay: Meropenem MIC with and without inhibitor; format: cell-based, Klebsiella pneumoniae; conditions: for Meropenem MIC in the presence of inhibitor: K. pneumoniae NCTC 5055 (IMP-1)
Protocol: as §5

[3] = tested on: K. pneumoniae B19 (IMP-4); assay: Meropenem MIC with and without inhibitor; format: cell-based, Klebsiella pneumoniae
Protocol: as §5

[4] = tested on: K. pneumoniae A34 (VIM-4); assay: Meropenem MIC with and without inhibitor; format: cell-based, Klebsiella pneumoniae
Protocol: as §5

TEM-1 = TEM-1 (Escherichia coli, UniProt P62593); assay: Inhibition studies TEM-1; format: biochemical; conditions: for Inhibition verdict: TEM-1, 100 μM; for remaining activity at 100 µM: read-out: RA (residual activity); for Inhibition verdict: key: N.I.—not inhibited
Protocol: To investigate the selectivity of ML302/ML302F for bacterial MBLs, activity was tested against TEM-1 (a Class A SBL), PBP-5 (penicillin-binding protein 5 or dacA) and PBP-6 (penicillin-binding protein 6, or dacC) from E. coli, hHAT (human histone acetyltransferase) and hHDAC (human histone deacetylase). TEM-1, PBP-5 and -6 and hHAT are known to be inhibited by rhodanines. Selectively against hACE-2 (Angiotensin converting enzyme 2) and hHAGH (Hydroxyacylglutathione hydrolase, human Glyoxylase II) was also tested.
The inhibition analysis for TEM-1 was performed using the modified method that was previously described for MBLs.21 In brief: ML302 and ML302F were screened at a single concentration (100 μM) in duplicate. Inhibition was tested by pre-incubation of the appropriate amount of TEM-1 (1 nM final concentration) and ML302 or ML302F in the assay buffer (50 mM HEPES-NaOH buffer (pH 7.2) supplemented with 0.01% Triton 100) for 10 min. at r.t. prior to the initiation of the assay by the addition of FC5 ((6R,7R)-8-Oxo-3-(((2-oxo-2H-chromen-7-yl)oxy)methyl)-7-(2-phenylacetamido)-5-thia-1-azabicyclo[4.2.0]oct-2-ene-2-carboxylic acid 5,5-dioxide)21 (10 μM final concentration). The hydrolysis of FC5 was monitored by following the variation on fluorescence reading (380 nm—excitation and 460 nm—emission) using 384 well flat bottom plates (Greiner Bio-One). The experiments were performed on a PHERAstar FS-BMG Labtech microplate reader at r.t. (24-25° C.). All enzymes and inhibitors were prepared in the assay buffer.

[5] = Klebsiella pneumoniae, read-out: Meropenem MIC in the absence of inhibitor

TEM-1, sequence (P62593 24-286 limits assumed): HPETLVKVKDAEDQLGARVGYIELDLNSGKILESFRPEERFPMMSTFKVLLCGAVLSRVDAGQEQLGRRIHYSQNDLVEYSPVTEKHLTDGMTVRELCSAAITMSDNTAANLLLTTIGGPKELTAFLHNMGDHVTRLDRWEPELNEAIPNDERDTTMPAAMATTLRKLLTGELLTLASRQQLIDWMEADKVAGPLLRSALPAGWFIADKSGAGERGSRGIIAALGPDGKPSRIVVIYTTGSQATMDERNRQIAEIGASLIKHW
T4 sequence (P52699 19-246 limits assumed): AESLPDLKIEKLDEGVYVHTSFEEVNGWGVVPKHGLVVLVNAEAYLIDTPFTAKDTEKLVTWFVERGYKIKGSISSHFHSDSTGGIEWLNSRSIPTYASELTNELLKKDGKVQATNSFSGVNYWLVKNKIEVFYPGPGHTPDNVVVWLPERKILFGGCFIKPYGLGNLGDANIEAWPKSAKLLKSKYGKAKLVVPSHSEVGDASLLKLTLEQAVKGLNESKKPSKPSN
T1 sequence (P04190 31-257): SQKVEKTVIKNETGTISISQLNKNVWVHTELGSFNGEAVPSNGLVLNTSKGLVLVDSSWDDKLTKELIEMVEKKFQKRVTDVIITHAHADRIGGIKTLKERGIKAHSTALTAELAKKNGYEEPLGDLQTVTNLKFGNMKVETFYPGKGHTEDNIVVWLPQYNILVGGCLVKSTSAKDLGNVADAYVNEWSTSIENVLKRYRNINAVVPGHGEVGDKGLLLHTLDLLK

| Compound | IC50 (BcII) | IC50 (NDM-1) | Inhibitor concentration that conferred meropenem sensitivity (lowest tested) [1] | Synergy with meropenem [1] | Meropenem MIC in the presence of inhibitor (E. coli MG1655 (IMP-1); inhibitor 10 mg/L) | Meropenem MIC in the presence of inhibitor (E. coli MG1655 (IMP-1); inhibitor 25 mg/L) | Meropenem MIC in the presence of inhibitor (E. coli MG1655 (IMP-1); inhibitor 50 mg/L) | Meropenem MIC in the presence of inhibitor (E. coli MG1655 (IMP-1); inhibitor 100 mg/L) | Meropenem MIC in the presence of inhibitor (E. coli IR60 (NDM-1); inhibitor 10 mg/L) | Meropenem MIC in the presence of inhibitor (E. coli IR60 (NDM-1); inhibitor 25 mg/L) | Meropenem MIC in the presence of inhibitor (E. coli IR60 (NDM-1); inhibitor 50 mg/L) | Meropenem MIC in the presence of inhibitor (E. coli IR60 (NDM-1); inhibitor 100 mg/L) | IC50 (VIM-1) | IC50 (IMP-1) | Meropenem MIC in the presence of inhibitor ([2]; inhibitor 10 mg/L) | Meropenem MIC in the presence of inhibitor ([2]; inhibitor 25 mg/L) | Meropenem MIC in the presence of inhibitor ([2]; inhibitor 50 mg/L) | Meropenem MIC in the presence of inhibitor ([3]; inhibitor 10 mg/L) | Meropenem MIC in the presence of inhibitor ([3]; inhibitor 25 mg/L) | Meropenem MIC in the presence of inhibitor ([3]; inhibitor 50 mg/L) | also measured |
| --- | --- | --- | --- | --- | --- | --- | --- | --- | --- | --- | --- | --- | --- | --- | --- | --- | --- | --- | --- | --- | --- |
| CN1CCN(NC(=O)CN2C(=O)C(=Cc3c(Cl)ccc(Cl)c3Cl)SC2=S)CC1 (mixture of isomers) [ML302, N-(4-Methylpiperazin-1-yl)-2-(4-oxo-2-thioxo-5-(2,3,6-trichlorobenzylidene)thiazolidin-3-yl)acetamide] | 500 ± 150 nM | 9440 ± 1440 nM | 10 µg/mL | Synergy between ML302 and meropenem was observed for all MBL producing strains | 0.5 µg/mL | ≤ 0.25 µg/mL | ≤ 0.25 µg/mL | ≤ 0.25 µg/mL | 8 µg/mL | 8 µg/mL | 4 µg/mL | 2 µg/mL | 660 ± 250 nM | 175 ± 60 nM | ≤ 0.25 µg/mL | ≤ 0.25 µg/mL | ≤ 0.25 µg/mL | 0.5 µg/mL | ≤ 0.25 µg/mL | ≤ 0.25 µg/mL | Inhibitor concentration giving meropenem sensitivity ([1]; read-out: Inhibitor concentration at which clinically relevant meropenem sensitivity (MIC<8 μg/mL) achieved): 50 µg/mL; Meropenem MIC in the presence of inhibitor ([4]; inhibitor 10 mg/L): 32 µg/mL; Meropenem MIC in the presence of inhibitor ([4]; inhibitor 25 mg/L): 8 µg/mL; Meropenem MIC in the presence of inhibitor ([4]; inhibitor 50 mg/L): 4 µg/mL; Meropenem MIC in the presence of inhibitor ([4]; inhibitor 100 mg/L): 4 µg/mL; Inhibition verdict (TEM-1): N.I.; remaining activity at 100 µM (TEM-1): 98.6 ± 7.1% |
| O=C(O)C(S)=Cc1c(Cl)ccc(Cl)c1Cl (racemic) [ML302F, 2-Mercapto-3-(2,3,6-trichlorophenyl)acrylic acid] | 20 nM | 1050 ± 300 nM | 10 µg/mL | displayed synergy with meropenem | 4 µg/mL | 4 µg/mL | 2 µg/mL | 0.5 µg/mL | 16 µg/mL | 16 µg/mL | 8 µg/mL | 8 µg/mL | 440 ± 190 nM | 2.88 nM | 4 µg/mL | 0.5 µg/mL | 0.5 µg/mL | 2 µg/mL | 1 µg/mL | 0.5 µg/mL | Meropenem MICs in the presence of ML302F relative to the same ML302 concentration, fold higher [1]: up to 8 fold; Meropenem MIC in the presence of inhibitor ([4]; inhibitor 10 mg/L): 64 µg/mL; Meropenem MIC in the presence of inhibitor ([4]; inhibitor 25 mg/L): 32 µg/mL; Meropenem MIC in the presence of inhibitor ([4]; inhibitor 50 mg/L): 32 µg/mL; Meropenem MIC in the presence of inhibitor ([4]; inhibitor 100 mg/L): 16 µg/mL; Inhibition verdict (TEM-1): N.I.; remaining activity at 100 µM (TEM-1): 99.6 ± 3.1% |
| C[C@@H](O)[C@H]1C(=O)N2C(C(=O)O)=C(S[C@@H]3CN[C@H](C(=O)N(C)C)C3)[C@H](C)[C@H]12 [Meropenem, meropenem] | – | – | – | – | – | – | – | – | – | – | – | – | – | – | – | – | – | – | – | – | MIC (E. coli MG1655 (IMP-1); Escherichia coli, MG1655, read-out: Meropenem MIC in the absence of inhibitor): 32 µg/mL; MIC (E. coli IR60 (NDM-1); Escherichia coli, read-out: Meropenem MIC in the absence of inhibitor): 16 µg/mL; MIC ([2]; Klebsiella pneumoniae, NCTC5055, read-out: Meropenem MIC in the absence of inhibitor): 32 µg/mL; MIC [3, 5]: 16 µg/mL; MIC [4, 5]: 128 µg/mL |
